Measurements taken from ChEMBL document CHEMBL1156944, “Efficient microwave-assisted prenylation of pinostrobin and biological evaluation of its derivatives as antitumor agents” (Bioorg Med Chem Lett, 2010).

How the values were obtained:
Format in all cases: functional, cell-based
[1] = Cytotoxicity against human COLO320DM cells after 72 hrs by WST-8 assay; details: COLO 320DM
SK-BR-3 = assay: Cytotoxicity against human SK-BR-3 cells after 72 hrs by WST-8 assay; details: SK-BR-3, 72 h
MCF7 = assay: Cytotoxicity against human MCF7 cells after 72 hrs by WST-8 assay; details: MCF7, 72 h
PC-3 = assay: Cytotoxicity against human PC3 cells after 72 hrs by WST-8 assay; details: PC-3, 72 h

| SMILES | IC50 [1] [µM] | IC50 (SK-BR-3) [µM] | IC50 (MCF7) [µM] | IC50 (PC-3) [µM] |
| --- | --- | --- | --- | --- |
| COc1cc(O)c2c(c1)O[C@H](c1ccccc1)CC2=O [PINOSTROBIN] | > 100 | 94.3 | 84.9 | 86.7 |
| COc1cc(O)c2c(c1CC=C(C)C)OC(c1ccccc1)CC2=O (configuration not stated) | 24.2 | 34.4 | 30.3 | 35.3 |
| COc1cc2c(c3c1C(C)(C)C(C)O3)C(=O)CC(c1ccccc1)O2 (configuration not stated) | 18.6 | 14 | 29.5 | 10.4 |
